Series [1] in a line: Determination of Log P (n-octanol/water partition). Format: physicochemical. To be noted: 177Lu-labeled compound, mean of three tubes. The procedure:
Three EP tubes were prepared, each containing 0.1 mL of saturated n-octanol and 80 μL of ultrapure water. Then, 20 μL (approximately 1 MBq) of the ^177Lu-labeled DB-13, DB-18, and DB-19 compound solutions were added to the respective tubes. After shaking evenly, the tubes were centrifuged at room temperature (2000 r/min, 5 minutes, centrifugation radius of 10 cm). From each tube, 100 μL was taken from both the lipid layer and the aqueous layer, and the radioactivity counts per minute for both phases were measured. The Log P values were calculated, and their mean values were taken as the final result.

A further series deals with albumin in rat plasma. As to the kind of experiment: Plasma protein binding (PPB) test by ultrafiltration. Type of series: in vitro ADME. To be noted: 177Lu-labeled compound. The procedure: The labeled compounds ^177Lu-E-3, 177Lu-DB-13, 177Lu-DB-18, and ^177Lu-DB-19 (1 μCi) were prepared in a reaction solution by adding 50 μL of PBS to achieve a concentration of 20 μCi/mL. 50 μL of the 20 μCi/mL reaction solution was added to 200 μL of plasma, repeated for 3 tubes. The mixture was mixed well and incubated at room temperature for 10 minutes, then added to ultrafiltration tubes and centrifuged at 13000 rpm for 45 minutes. Following this, 50 μL of normal saline was added and the samples were centrifuged again for 15 minutes. The upper chamber and the filtrate were respectively counted for radioactivity.
PPB=[(upper chamber counts−background counts]/(filtrate counts+upper chamber counts−2*background counts)]*100%.

Series [2] concerns PSMA-positive 22rv1 tumor-bearing mouse. As to the kind of experiment: 177Lu labeling and animal biodistribution experiment, gamma counter. Type of series: in vivo. To be noted: 177Lu-labeled compound, 24 h after tail vein injection, n = 2. As for the experimental part:
Distribution in PSMA-positive tumor-bearing mouse tissues: Tumor-bearing animals (purchased from Shanghai Alamo Pharmaceutical Technology Co., Ltd.) were subcutaneously inoculated with 3×10^6 22rv1 cells (in 50% Matrigel, Corning) into the right shoulder region of 6-9 week old (Balb/c Nude) mouse. Once the tumors had grown to an appropriate size, ^177Lu-radiolabeled DB compounds were injected into the mouse via the tail vein (approximately 1.85 MBq-3.7 MBq/mouse, specific activity: 22423.82 Kbq/μg). After administration, the animals were euthanized using carbon dioxide inhalation at 24 hours. The blood and organs (blood, liver, kidney, muscle, tumor) were collected.
Blood was collected through the abdominal aorta and 100 μL was immediately quantified into designated centrifuge tubes (weighed). After collection, the organs were washed twice with deionized water, dried, placed in pre-weighed tubes, and weighed again to calculate the sample weight. Samples were measured on the day of collection. All blood and tissue samples were measured for radioactivity using a gamma counter. The results are shown in FIGS. 3, 4, 5, 6, 7, and Table 6.

The subject of another series is LNCaP cells. As to the kind of experiment: Cell killing, CCK8 assay. Format: cell-based. To be noted: 177Lu-labeled, 45 μCi/mL, CCK8 on fifth day. As for the experimental part:
A. LNCaP cells in the logarithmic growth phase were prepared into a cell suspension, and the cell density was adjusted to 1×10^5 cells/mL. 1 mL of the cell suspension was seeded into each well of a 24-well cell culture plate. The cells were cultured for 24 hours in a 37° C. incubator.
B. The ^177Lu-labeled compound (^177Lu-E-3) was prepared in serum-containing culture medium at radioactive concentrations of 5, 15, and 45 μCi/mL (the unlabeled E-3 was prepared at a corresponding precursor concentration for 45 μCi/mL).
C. The experimental groups were treated with 1 mL/well of the above ^177Lu-labeled compound solutions, while the control group was treated with 1 mL/well of serum-containing culture medium.
D. The cells were cultured in the incubator for 24 hours, after which the medium was entirely replaced with fresh culture medium.
E. On the fifth day, cell proliferation in each group was monitored using an enhanced CCK8 assay kit.
(Formazan colour is commonly taken as a measure of viable cells.)

A further series addresses PSMA protein (Homo sapiens (Human), UniProt Q04609). As to the kind of experiment: Affinity of DB compounds to PSMA protein using Biacore (Effect Example 3). Conditions: Biacore 8K, 15° C., 1:1 binding model; pKD=−Log KD. As for the experimental part:
The affinity of DB compounds to PSMA protein was tested using the Biacore 8K (Cytiva) instrument to detect ligand binding to PSMA protein (Sino Biological). PSMA protein was captured on an SA chip. Before fixing the ligand (flow paths 1 and 2, flow rate of 10 μL/min), PSMA protein (10 μg/mL, flow rate of 5 μL/min, injection time of 600 s) was fixed on flow path 2 using a flow buffer. The sensor surface was adjusted by continuously injecting 1 M NaCl three times in 50 mM NaOH. After each ligand injection, additional cleaning was performed using isopropanol in 1 M NaCl and 50 mM NaOH (flow paths 1 and 2, flow rate of 10 μL/min, injection time of 60 s).
All compounds were dissolved in 100% DMSO and diluted to 10 mM, then further diluted to the appropriate highest concentration in the analysis buffer (PBS, PH 7.4, 1 mM TCEP ([…]), 0.05% P20, 2% DMSO). The analysis was conducted under the following conditions: 15° C. analysis temperature; analysis steps=all set to LMW kinetics; cycle type=single cycle (90 s contact time, 1800 s dissociation time, 30 μL/min flow rate, flow paths 1 and 2); detection in flow=path 2-1. Data evaluation was performed using Biacore Insight Evaluation Software, fitting the data to a 1:1 binding model.
Biacore results are shown in Table 5: pKD=−Log KD, wherein KD is the binding affinity of the compound to PSMA protein measured by Biacore. It is expressed by Kd (M)=Kd (1/s)/Ka (1/Ms). A indicates pKD>8; B indicates 7<pKD<8; C indicates 6<pKD<7; D indicates pKD<6.
For orientation: In SPR one partner is held on a chip, and binding of the other changes the refractive index at the surface.

Series [3] concerns the target PSMA-expressing cells (22Rv1) (Homo sapiens (Human), UniProt Q04609). The series can be described thus: Competitive binding against radiolabeled PSMA-617 ligand on 22Rv1 cells. Conditions: unlabeled compound vs radiolabeled PSMA-617 ligand, on ice 2 hours. The procedure: (1) 22Rv1 cells in the logarithmic growth phase were prepared into a cell suspension, and the cell density was adjusted to 1×10^4 cells/mL. 1 mL of the cell suspension was seeded into each well of a 24-well cell culture plate. The cells were cultured overnight in a 37° C. incubator.
(2) The cell culture medium was aspirated, and the cells were washed once with PBS. Then, 975 μL of additive-free medium was added.
(3) To each well, 25 μL of a fixed concentration of radiolabeled PSMA-617 ligand (final concentration in the medium: 2 μCi/mL) and different concentrations (final concentrations in the medium: 1000 ng/ml, 100 ng/mL, 10 ng/mL, 1 ng/mL, 0.1 ng/mL, 0.01 ng/mL, 0.001 ng/mL, 0 ng/ml) of the unlabeled test blocking compounds DB-18, DB-19, DB-13, E-3 were added.
(4) The cells were incubated on ice for 2 hours.
(5) The cells were washed three times with ice-cold PBS.
(6) The cells were lysed with 0.5 mL of 1 M sodium hydroxide, and washed twice with 0.5 mL PBS. The sodium hydroxide (0.5 mL) and PBS (0.5 mL×2) solutions were collected for uptake counting.

Series [4] concerns 22rv1 tumor-bearing Balb/c Nude mouse. The series can be described thus: Treatment efficacy in 22RV1 tumor-bearing mouse model. Format: in vivo. Conditions: two doses, 0.15 mCi and 0.45 mCi. As for the experimental part: Balb/c Nude mouse, approximately 6-8 weeks old, were subcutaneously inoculated with 3×10^6 22rv1 cells (in 50% Matrigel, Corning) into the right scapular region. Once the tumors reached the required size for the experiment, the animals were randomly assigned into 11 experimental groups based on tumor volume, with 5 mouse per group. The body weight and tumor size of the animals were measured. On the day of grouping, treatments were administered as follows: control group (normal saline), group 1 (^177Lu-DB-13, 0.15 mCi/mouse), group 2 (^177Lu-DB-13, 0.45 mCi/mouse), group 3 (^177Lu-DB-13, 0.05 mCi/mouse), group 4 (^177Lu-B-11, 0.05 mCi/mouse), group 5 (^177Lu-DB-11, 0.15 mCi/mouse), group 6 (^177Lu-DB-11, 0.45 mCi/mouse), group 7 (^177Lu-PSMA-617, 0.15 mCi/mouse), group 8 (^177Lu-PSMA-617, 0.45 mCi/mouse), group 9 (^177Lu-DB-19, 0.05 mCi/mouse), group 10 (^177Lu-DB-19, 0.15 mCi/mouse), group 11 (^177Lu-DB-19, 0.45 mCi/mouse). After the start of treatment, general health and appearance were observed daily. Body weight and tumor size were measured at each sampling time point. Any abnormal observations during the study were recorded in the raw data.

pIC50, pKd: −log10 of the molar value.

PSMA protein, sequence (Q04609 whole entry): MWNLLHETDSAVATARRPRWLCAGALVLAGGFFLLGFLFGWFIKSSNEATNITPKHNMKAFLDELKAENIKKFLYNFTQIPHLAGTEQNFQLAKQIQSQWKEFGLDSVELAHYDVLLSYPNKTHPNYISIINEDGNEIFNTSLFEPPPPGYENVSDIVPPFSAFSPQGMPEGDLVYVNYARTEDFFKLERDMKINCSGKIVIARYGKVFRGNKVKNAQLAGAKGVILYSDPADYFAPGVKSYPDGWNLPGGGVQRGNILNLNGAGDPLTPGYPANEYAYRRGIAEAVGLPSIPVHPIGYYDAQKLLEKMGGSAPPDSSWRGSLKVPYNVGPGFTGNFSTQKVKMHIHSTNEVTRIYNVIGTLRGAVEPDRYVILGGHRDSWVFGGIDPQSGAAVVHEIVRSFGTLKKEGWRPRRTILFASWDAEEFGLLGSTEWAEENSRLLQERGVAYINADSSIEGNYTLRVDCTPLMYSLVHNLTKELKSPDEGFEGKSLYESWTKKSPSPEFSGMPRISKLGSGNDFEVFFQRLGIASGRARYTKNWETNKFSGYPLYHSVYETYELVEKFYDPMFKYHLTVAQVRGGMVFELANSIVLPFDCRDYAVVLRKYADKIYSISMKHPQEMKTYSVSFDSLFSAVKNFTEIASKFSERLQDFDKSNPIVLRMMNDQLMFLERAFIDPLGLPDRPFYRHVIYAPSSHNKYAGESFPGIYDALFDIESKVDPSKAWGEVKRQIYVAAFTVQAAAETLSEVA
PSMA-expressing cells (22Rv1), sequence (Q04609 whole entry): as above

As usually defined, the logP is the decadic logarithm of the partition coefficient of the neutral form, usually between octanol and water. Read a high logP as a more lipophilic compound. By pKd is commonly meant the negative decadic logarithm of the Kd, by convention in mol/L. Higher therefore signals a low Kd. Broadly, the pIC50 is −log10 of the IC50, conventionally taken in molar units. In series [1], `O=C(O)CC[C@H](NC(=O)NC(CCCCNC(=O)[C@H](Cc1ccc2ccccc2c1)NC(=O)[C@H]1CC[C@H](NC(=O)CCC(=O)NCC(=O)N2CN(C(=O)CNC(=O)CCC(=O)N[C@H]3CC[C@H](C(=O)N[C@@H](Cc4ccc5ccccc5c4)C(=O)NCCCC[C@H](NC(=O)N[C@@H](CCC(=O)O)C(=O)O)C(=O)O)CC3)CN(C(=O)CNC(=O)CN3CCN(CC(=O)O)CCN(CC(=O)O)CCN(CC(=O)O)CC3)C2)CC1)C(=O)O)C(=O)O` (stereo partly shown) [DB-13] registered a logP of -1.96. Besides, the “plasma protein binding ratio (albumin binding ratio)” value in the series on albumin in rat plasma was 90.84%. In series [2], the Blood uptake was found to be 0.025 % ID/g, the Kidney uptake is recorded as 2.890 % ID/g, the Liver uptake worked out at 0.115 % ID/g and the Muscle uptake is 0.060 % ID/g. Moreover, in series [2], the Tumor uptake was 16.195 % ID/g. The compound further gave a cell-killing rate in the series with LNCaP cells of 67%. The pKd at PSMA protein was greater than 8.00. For the same compound, the pIC50 in series [3] is 8.74.

Take `O=C(O)CC[C@H](NC(=O)NC(CCCCNC(=O)[C@H](Cc1ccc2ccccc2c1)NC(=O)c1ccc2c(c1)CCN(C(=O)CNC(=O)c1cc(NC(=O)CNC(=O)CN3CCN(CC(=O)O)CCN(CC(=O)O)CCN(CC(=O)O)CC3)cc(C(=O)NCC(=O)N3CCc4cc(C(=O)N[C@@H](Cc5ccc6ccccc6c5)C(=O)NCCCC[C@H](NC(=O)N[C@@H](CCC(=O)O)C(=O)O)C(=O)O)ccc4C3)c1)C2)C(=O)O)C(=O)O` (stereo partly shown) [DB-19]: the logP in series [1] is -1.79. Besides, the “plasma protein binding ratio (albumin binding ratio)” value in the series with albumin in rat plasma stood at 59.07%. Further, the “tumor growth inhibition compared with PSMA-617” value in series [4] is “superior tumor growth inhibition”. For the same compound, in series [2], the Blood uptake is 1.715 % ID/g, the Kidney uptake came out at 177.885 % ID/g, the Liver uptake turned out to be 2.725 % ID/g and the Muscle uptake is 0.73 % ID/g. For the same compound, on PSMA protein, the pKd was greater than 8.00. Moreover, the pIC50 in series [3] was 9.03.

For the origin of these results see patent US20250108139A1, “PEPTIDE UREA DERIVATIVE, PHARMACEUTICAL COMPOSITION CONTAINING PEPTIDE UREA DERIVATIVE, AND APPLICATION OF PEPTIDE UREA DERIVATIVE” (BIVISION PHARMACEUTICALS, INC, priority 2022, published 2025).
